These results are taken from US5262417A, “Antibacterial quinolone compounds” (The Upjohn Company, priority 1991, dated 1993).

What all share (test): Dip disk (disk-diffusion) assay, disks loaded with 0.05 ml
Assay type in all cases: cell-based

The test system of assay [1] is Staphylococcus aureus UC 80 (SA). Conditions: Staphylococcus aureus, UC80, read-out: Growth Inhibition zone, SA. The method, then: (§1) The effectiveness of the subject compounds on bacteria were obtained by performing a dip disk assay. The antibacterial activity of the compounds was determined by the disk-diffusion method. Paper disks (12.7 mm) were loaded with 0.05 ml of drug solution prepared at a concentration of 0.1 mcg/ml; the disks were allowed to air dry. They were then applied to the surface of microorganism-seeded agar assay trays, which contained the bacterial strain Pseudomonas aeruginosa UC 95 (PA), Escherichia coli UC 51 (EC), Klebsiella pneumoniae UC 57 (KP), or Staphylococcus aureus UC 80 (SA). The assay trays were incubated overnight under aerobic condition to allow for the growth of the organisms. Zones of growth inhibition due to the action of the antibiotic were then measured to the nearest millimeter.
(§2) The effectiveness of additional compounds 5-9, (5-7 are Formula IAa compounds and 8 and 9 are Formula IAb compounds) on bacteria were obtained by performing a dip disk assay as described above. The antibacterial activity of the compounds was determined by the disk-diffusion method where the disks were loaded with 0.05 ml of drug solution prepared at a concentration of 1.0 mcg/ml; the disks were allowed to air dry.

In assay [2] the test system is Escherichia coli UC 51 (EC). Conditions: Escherichia coli, UC51; 0.1 mcg/ml, 0.05 ml per disk; read-out: Growth Inhibition zone, EC. On the procedure:
as §1, §2

For assay [3], the system named is Pseudomonas aeruginosa UC 95 (PA). Conditions: Pseudomonas aeruginosa, UC95; 0.1 mcg/ml, 0.05 ml per disk; read-out: Growth Inhibition zone, PA. On the procedure: as §1, §2

Structures are written as SMILES.

`O=C(O)c1cn(C2CC2)c2cc(N3CCNCC3)c(F)cc2c1=O` [Ciprofloxacin, reference compound]: the results for the zone of inhibition at 0.1 µg/mL in assay [1], in assay [2] and in assay [3] were 27 mm, 29 mm and 38 mm, respectively.
